In ChEMBL document CHEMBL3885881, “DrugMatrix”:

Species: Rattus norvegicus
Assay: DrugMatrix - Regimen: Daily Repeat
Format: toxicity, organism-based, Sprague-Dawley
Set-up: regimen Daily Repeat, gender Male, age 6-8 weeks
Conditions: in vivo, iv, vehicle 100 % SALINE; for ABSOLUTE BASOPHIL / ABSOLUTE EOSINOPHIL / ABSOLUTE LYMPHOCYTE / ABSOLUTE MONOCYTE / ABSOLUTE SEGMENTED NEUTROPHIL / BASOPHIL / EOSINOPHIL / ERYTHROCYTE COUNT / HEMATOCRIT / HEMOGLOBIN / LEUKOCYTE COUNT / LYMPHOCYTE / MEAN CORPUSCULAR HEMOGLOBIN / MEAN CORPUSCULAR HEMOGLOBIN CONCENTRATION / MEAN CORPUSCULAR VOLUME / MONOCYTE / NEUTROPHIL / NUCLEATED RED BLOOD CELLS / PLATELET COUNT: tissue Blood; for ALANINE AMINOTRANSFERASE / ALBUMIN / ALKALINE PHOSPHATASE / ASPARTATE AMINOTRANSFERASE / BLOOD UREA NITROGEN / CARBON DIOXIDE / CHLORIDE / CHOLESTEROL / CREATINE PHOSPHOKINASE / CREATININE / GLUCOSE / LACTATE DEHYDROGENASE / LIPASE / PHOSPHORUS / POTASSIUM / SODIUM / TOTAL BILIRUBIN / TOTAL PROTEIN: tissue Plasma
[1] = 1 mg/kg, 72 h, dose level Low, time 3 day
[2] = 1 mg/kg, 120 h, dose level Low, time 5 day
[3] = 76 mg/kg, 72 h, dose level High, time 3 day
[4] = 76 mg/kg, 120 h, dose level High, time 5 day

C=CCN1CC[C@]23c4c5ccc(O)c4O[C@H]2C(=O)CC[C@@]3(O)[C@H]1C5 [NALOXONE]
ABSOLUTE BASOPHIL [1]: 0 CELLS/uL | ABSOLUTE EOSINOPHIL [1]: 394 CELLS/uL | ABSOLUTE LYMPHOCYTE [1]: 14212 CELLS/uL | ABSOLUTE MONOCYTE [1]: 229.67 CELLS/uL | ABSOLUTE SEGMENTED NEUTROPHIL [1]: 1597.67 CELLS/uL | BASOPHIL [1]: 0% | EOSINOPHIL [1]: 2.33% | ERYTHROCYTE COUNT [1]: 5.29 x10E6/uL | HEMATOCRIT [1]: 33.37% | HEMOGLOBIN [1]: 12.43 G/DL | LEUKOCYTE COUNT [1]: 16.43 x10E3/uL | LYMPHOCYTE [1]: 86.33% | MEAN CORPUSCULAR HEMOGLOBIN [1]: 23.5 pg | MEAN CORPUSCULAR HEMOGLOBIN CONCENTRATION [1]: 37.23 G/DL | MEAN CORPUSCULAR VOLUME [1]: 63.13 fL | MONOCYTE [1]: 1.33% | NEUTROPHIL [1]: 10% | NUCLEATED RED BLOOD CELLS [1]: 0 /100WBC | PLATELET COUNT [1]: 1087.33 x10E3/uL | ALANINE AMINOTRANSFERASE [1]: 52 u/L | ALBUMIN [1]: 4.2 G/DL | ALKALINE PHOSPHATASE [1]: 368.67 u/L | ASPARTATE AMINOTRANSFERASE [1]: 96 u/L | BLOOD UREA NITROGEN [1]: 16.33 mg/dL | CARBON DIOXIDE [1]: 26.67 mmol/L | CHLORIDE [1]: 103.67 MEQ/L | CHOLESTEROL [1]: 70.67 mg/dL | CREATINE PHOSPHOKINASE [1]: 678.67 u/L | CREATININE [1]: 0.2 mg/dL | GLUCOSE [1]: 178.33 mg/dL | LACTATE DEHYDROGENASE [1]: 116.67 u/L | LIPASE [1]: 9.67 u/L | PHOSPHORUS [1]: 12.63 mg/dL | POTASSIUM [1]: 6.32 MEQ/L | SODIUM [1]: 144.23 MEQ/L | TOTAL BILIRUBIN [1]: 0.2 mg/dL | TOTAL PROTEIN [1]: 5.9 G/DL | ABSOLUTE BASOPHIL [2]: 0 CELLS/uL | ABSOLUTE EOSINOPHIL [2]: 66.67 CELLS/uL | ABSOLUTE LYMPHOCYTE [2]: 9301.33 CELLS/uL | ABSOLUTE MONOCYTE [2]: 105.67 CELLS/uL | ABSOLUTE SEGMENTED NEUTROPHIL [2]: 1026.33 CELLS/uL | BASOPHIL [2]: 0% | EOSINOPHIL [2]: 0.67% | ERYTHROCYTE COUNT [2]: 5.74 x10E6/uL | HEMATOCRIT [2]: 35.87% | HEMOGLOBIN [2]: 13.53 G/DL | LEUKOCYTE COUNT [2]: 10.5 x10E3/uL | LYMPHOCYTE [2]: 88.67% | MEAN CORPUSCULAR HEMOGLOBIN [2]: 23.57 pg | MEAN CORPUSCULAR HEMOGLOBIN CONCENTRATION [2]: 37.73 G/DL | MEAN CORPUSCULAR VOLUME [2]: 62.5 fL | MONOCYTE [2]: 1% | NEUTROPHIL [2]: 9.67% | NUCLEATED RED BLOOD CELLS [2]: 0.33 /100WBC | PLATELET COUNT [2]: 1255.33 x10E3/uL | ALANINE AMINOTRANSFERASE [2]: 45.67 u/L | ALBUMIN [2]: 4.1 G/DL | ALKALINE PHOSPHATASE [2]: 363 u/L | ASPARTATE AMINOTRANSFERASE [2]: 88.67 u/L | BLOOD UREA NITROGEN [2]: 15.67 mg/dL | CARBON DIOXIDE [2]: 25 mmol/L | CHLORIDE [2]: 106 MEQ/L | CHOLESTEROL [2]: 63.67 mg/dL | CREATINE PHOSPHOKINASE [2]: 400.33 u/L | CREATININE [2]: 0.18 mg/dL | GLUCOSE [2]: 177.67 mg/dL | LACTATE DEHYDROGENASE [2]: 358 u/L | LIPASE [2]: 8.33 u/L | PHOSPHORUS [2]: 12.67 mg/dL | POTASSIUM [2]: 6.28 MEQ/L | SODIUM [2]: 144.83 MEQ/L | TOTAL BILIRUBIN [2]: 0.23 mg/dL | TOTAL PROTEIN [2]: 6.2 G/DL | ABSOLUTE BASOPHIL [3]: 0 CELLS/uL | ABSOLUTE EOSINOPHIL [3]: 219 CELLS/uL | ABSOLUTE LYMPHOCYTE [3]: 13357.67 CELLS/uL | ABSOLUTE MONOCYTE [3]: 239.33 CELLS/uL | ABSOLUTE SEGMENTED NEUTROPHIL [3]: 1117.33 CELLS/uL | BASOPHIL [3]: 0% | EOSINOPHIL [3]: 1.33% | ERYTHROCYTE COUNT [3]: 5.83 x10E6/uL | HEMATOCRIT [3]: 36.57% | HEMOGLOBIN [3]: 14.13 G/DL | LEUKOCYTE COUNT [3]: 14.93 x10E3/uL | LYMPHOCYTE [3]: 89.67% | MEAN CORPUSCULAR HEMOGLOBIN [3]: 24.23 pg | MEAN CORPUSCULAR HEMOGLOBIN CONCENTRATION [3]: 38.67 G/DL | MEAN CORPUSCULAR VOLUME [3]: 62.73 fL | MONOCYTE [3]: 1.67% | NEUTROPHIL [3]: 7.33% | NUCLEATED RED BLOOD CELLS [3]: 0 /100WBC | PLATELET COUNT [3]: 1424 x10E3/uL | ALANINE AMINOTRANSFERASE [3]: 46.67 u/L | ALBUMIN [3]: 4.23 G/DL | ALKALINE PHOSPHATASE [3]: 304.67 u/L | ASPARTATE AMINOTRANSFERASE [3]: 92.33 u/L | BLOOD UREA NITROGEN [3]: 15.67 mg/dL | CARBON DIOXIDE [3]: 24.33 mmol/L | CHLORIDE [3]: 110.67 MEQ/L | CHOLESTEROL [3]: 46 mg/dL | CREATINE PHOSPHOKINASE [3]: 383.33 u/L | CREATININE [3]: 0.12 mg/dL | GLUCOSE [3]: 104 mg/dL | LACTATE DEHYDROGENASE [3]: 123 u/L | LIPASE [3]: 7.67 u/L | PHOSPHORUS [3]: 14.33 mg/dL | POTASSIUM [3]: 5.64 MEQ/L | SODIUM [3]: 148.07 MEQ/L | TOTAL BILIRUBIN [3]: 0.1 mg/dL | TOTAL PROTEIN [3]: 6.3 G/DL | ABSOLUTE BASOPHIL [4]: 0 CELLS/uL | ABSOLUTE EOSINOPHIL [4]: 118.67 CELLS/uL | ABSOLUTE LYMPHOCYTE [4]: 15030.67 CELLS/uL | ABSOLUTE MONOCYTE [4]: 170.67 CELLS/uL | ABSOLUTE SEGMENTED NEUTROPHIL [4]: 1746.67 CELLS/uL | BASOPHIL [4]: 0% | EOSINOPHIL [4]: 0.67% | ERYTHROCYTE COUNT [4]: 5.72 x10E6/uL | HEMATOCRIT [4]: 35.6% | HEMOGLOBIN [4]: 13.43 G/DL | LEUKOCYTE COUNT [4]: 17.07 x10E3/uL | LYMPHOCYTE [4]: 88% | MEAN CORPUSCULAR HEMOGLOBIN [4]: 23.53 pg | MEAN CORPUSCULAR HEMOGLOBIN CONCENTRATION [4]: 37.77 G/DL | MEAN CORPUSCULAR VOLUME [4]: 62.37 fL | MONOCYTE [4]: 1% | NEUTROPHIL [4]: 10.33% | NUCLEATED RED BLOOD CELLS [4]: 0 /100WBC | PLATELET COUNT [4]: 1344.67 x10E3/uL | ALANINE AMINOTRANSFERASE [4]: 49.67 u/L | ALBUMIN [4]: 4.07 G/DL | ALKALINE PHOSPHATASE [4]: 305 u/L | ASPARTATE AMINOTRANSFERASE [4]: 80.33 u/L | BLOOD UREA NITROGEN [4]: 13.67 mg/dL | CARBON DIOXIDE [4]: 26.33 mmol/L | CHLORIDE [4]: 105 MEQ/L | CHOLESTEROL [4]: 52.33 mg/dL | CREATINE PHOSPHOKINASE [4]: 250.33 u/L | CREATININE [4]: 0.19 mg/dL | GLUCOSE [4]: 172.67 mg/dL | LACTATE DEHYDROGENASE [4]: 79 u/L | LIPASE [4]: 8 u/L | PHOSPHORUS [4]: 12.5 mg/dL | POTASSIUM [4]: 6.34 MEQ/L | SODIUM [4]: 144.67 MEQ/L | TOTAL BILIRUBIN [4]: 0.13 mg/dL | TOTAL PROTEIN [4]: 6.03 G/DL
